Results from the supplement of paper PMC10307832.

How the values were obtained:
Assay in all cases: relative viability (nuclei count vs DMSO), 5 days (fraction); higher = more cells survive
[1] = compound: Cn1c(Nc2ccc(C(F)(F)F)cc2)nc2cc(Oc3ccnc(-c4ncc(C(F)(F)F)[nH]4)c3)ccc21 [RAF265] + CS(=O)(=O)N1CCN(Cc2cc3nc(-c4cccc5[nH]ncc45)nc(N4CCOCC4)c3s2)CC1 [Pictilisib] (partner 1 µM)
Outline: (§1)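 Five library-drug doses in √10 steps were combined with a fixed anchor-drug dose, or a single drug was given alone, by pin tool to lung cancer cell lines in 1536-well plates the day after seeding. Nuclei were stained and counted after 5 days. Relative viability is the nuclei count in treated wells over that in vehicle wells, taken as the median of duplicate plates.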

[2] = compound: C1=CC=C2C(=C1)C=CC(=C2SSC3=C(C=CC4=CC=CC=C43)O)O [IPA-3] + CCNC(=O)c1noc(-c2cc(C(C)C)c(O)cc2O)c1-c1ccc(CN2CCOCC2)cc1 [Luminespib] (partner 0.01 µM)
Outline: as §1

[3] = compound: C1=CC=C2C(=C1)C=CC(=C2SSC3=C(C=CC4=CC=CC=C43)O)O [IPA-3] + NC(=O)Nc1cc(-c2cccc(F)c2)sc1C(=O)N[C@H]1CCCNC1 [AZD7762] (partner 0.2 µM)
Outline: as §1

[4] = compound: C1=CC=C2C(=C1)C=CC(=C2SSC3=C(C=CC4=CC=CC=C43)O)O [IPA-3] + CS(=O)(=O)CCNCc1ccc(-c2ccc3ncnc(Nc4ccc(OCc5cccc(F)c5)c(Cl)c4)c3c2)o1 [Lapatinib] (partner 2 µM)
Outline: as §1

Cell Line | relative viability ([1]; first compound 0.01 µM) | relative viability ([1]; first compound 0.03162 µM) | relative viability ([1]; first compound 0.1 µM) | relative viability ([1]; first compound 0.3162 µM) | relative viability ([1]; first compound 1 µM) | relative viability ([2]; first compound 0.2 µM) | relative viability ([2]; first compound 0.6325 µM) | relative viability ([2]; first compound 2 µM) | relative viability ([2]; first compound 6.325 µM) | relative viability ([2]; first compound 20 µM) | relative viability ([3]; first compound 0.2 µM) | relative viability ([3]; first compound 0.6325 µM) | relative viability ([3]; first compound 2 µM) | relative viability ([3]; first compound 6.325 µM) | relative viability ([3]; first compound 20 µM) | relative viability ([4]; first compound 0.2 µM) | relative viability ([4]; first compound 0.6325 µM) | relative viability ([4]; first compound 2 µM) | relative viability ([4]; first compound 6.325 µM) | relative viability ([4]; first compound 20 µM)
CAL-12T | 0.359 | 0.407 | 0.293 | 0.278 | 0.223 | 0.724 | 0.287 | 0.449 | 0.375 | 0.488 | 0.634 | 0.662 | 0.661 | 0.629 | 0.686 | 0.919 | 0.651 | 0.761 | 0.643 | 0.756
NCI-H650 | 0.805 | 0.94 | 0.766 | 0.698 | 0.466 | 0.964 | 0.851 | 0.733 | 0.805 | 1.06 | 1.1 | 1.01 | 1.08 | 0.935 | 1.08 | 1.22 | 0.955 | 0.802 | 0.857 | 1.3
NCI-H1355 | 0.498 | 0.409 | 0.322 | 0.214 | 0.204 | 0.889 | 0.677 | 0.719 | 0.702 | 0.757 | 0.807 | 0.764 | 0.73 | 0.827 | 0.719 | 1.11 | 0.968 | 0.941 | 0.966 | 1.01
NCI-H838 | 0.53 | 0.444 | 0.397 | 0.362 | 0.342 | 0.238 | 0.218 | 0.306 | 0.276 | 0.378 | 1.05 | 0.94 | 1 | 0.967 | 1.08 | 1.55 | 0.964 | 0.941 | 1.01 | 1.07
LK-2 | 0.528 | 0.669 | 0.604 | 0.531 | 0.403 | 0.179 | 0.193 | 0.17 | 0.189 | 0.222 | 0.456 | 0.394 | 0.355 | 0.672 | 0.397 | 1.13 | 0.877 | 0.959 | 0.9 | 0.821
NCI-H322M | 0.48 | 0.487 | 0.406 | 0.308 | 0.252 | 0.964 | 0.722 | 1.08 | 1.02 | 1.13 | 0.503 | 0.6 | 0.616 | 0.808 | 0.786 | 0.566 | 0.66 | 0.596 | 0.566 | 0.613
NCI-H1395 | 0.632 | 0.574 | 0.568 | 0.449 | 0.507 | 0.726 | 0.671 | 0.6 | 0.601 | 0.699 | 0.377 | 0.413 | 0.423 | 0.373 | 0.345 | 0.994 | 0.86 | 0.903 | 0.999 | 1.29
